Experimental findings from patent US8975417B2, “Pyrazolopyrrolidine derivatives and their use in the treatment of disease” (Novartis AG, priority 2013, dated 2015) are described below.

Read-outs that look alike come from different tables or passages of the source.

Assay [1] addresses His-CREBBP (1081-1197) bromodomain (Homo sapiens (Human), UniProt Q92793). The experiment in a line: AlphaScreen in-vitro binding assay for CREBBP. As to conditions: biochemical. As to the method:
AlphaScreen In-Vitro Binding Assay for CREBBP
In order to assess bromodomain selectivity, we set up a binding assay using the bromodomain encoded by the CREBBP gene. […] Reactions were incubated at 30° C. for 35 minutes. Subsequently 4.5 μL per well detection mix (50 mM HEPES, pH 7.5, 0.005% Tween20, 0.02% BSA, 150 mM NaCl, 45 μg/ml Ni-chelate acceptor beads, 45 μg/mL streptavidin-donor beads) (Perkin Elmer)) were added. After 60 minutes incubation at room temperature, plates were measured in a Perkin Elmer EnVision multilabel reader. IC50 values were determined from percent inhibition values at different compound concentrations by non-linear regression analysis.
(§1) Test compounds were dissolved in DMSO (10 mM) and transferred into 1.4 mL flat bottom or V-shaped Matrix tubes carrying a unique 2D matrix. The stock solutions were stored at […] if not used immediately. For the test procedure the vials were defrosted and identified by a scanner whereby a working sheet was generated that guided the subsequent working steps. Compound dilutions were made in 96 well plates. This format enabled the assay of maximally […] at 8 concentrations (single points) including 4 reference compounds, if desired (known BET inhibitors from the prior art, for this and other assays of the type disclosed herein). The dilution protocol included the production of “pre-dilution plates”, “master plates” and “assay plates”.
(§2) Polypropylene 96-well plates were used as pre-dilution plates. […] All dilution steps were done on a HamiltonSTAR robot.
These plates were used directly for the assay which was performed in a total volume of 13.55 μL.

In the next assay the target is His-Brd4(44-477) (Homo sapiens (Human), UniProt O60885). The experiment in a line: TR-FRET in-vitro binding assay for BRD4. As to conditions: biochemical. As for the experimental part:
(§3) TR-FRET In-Vitro Binding Assays for BRD2, BRD3, and BRD4:
(§4) All assays were performed in 384-well microtiter plates. Each assay plate contained 8-point serial dilutions for 40 test compounds, plus 16 high- and 16 low controls. Liquid handling and incubation steps were done on an Innovadyne Nanodrop Express equipped with a robotic arm (Thermo CatX, Perkin Elmer/Caliper Twister II) and an incubator (Liconic STX40, Thermo Cytomat 2C450). The assay plates were prepared by addition of 50 nl per well of compound solution in 90% DMSO HummingBird nanodispenser (Zinsser Analytic). The assay was started by stepwise addition of 4.5 μL per well of bromo domain protein (50 mM HEPES, pH 7.5, 0.005% Tween20, 0.1% BSA, 50 mM NaCl, 45 nM His-Brd2(60-472) or 45 nM His-Brd3(20-477) or 45 nM His-Brd4(44-477) all proteins produced in-house) and 4.5 μL per well of peptide solution (50 mM HEPES, pH 7.5, 0.005% Tween20, 0.1% BSA, 50 mM NaCl, 60 nM acetyl-histone H4 (AcK 5, 8, 12, 16) (Biosyntan GmbH)). Reactions were incubated at 30° C. for 35 minutes. Subsequently 4.5 μL per well detection mix (50 mM HEPES, pH 7.5, 0.005% Tween20, 0.1% BSA, 50 mM NaCl, 3 nM Eu-labeled anti-His6 antibody, 21 nM streptavidin-allophycocyanin) were added. After minutes incubation at 30° C., plates were measured in a Perkin Elmer EnVision multilabel reader.
as §1, §2
(§5) 30 μL of individual compound dilutions including standard compound and controls of the 4 “pre-dilution plates” were transferred into a 384-well “master plate” including the following concentrations 10000, […], 1000, 300, 100, 30, 10 and 3 μM, respectively in 90% of DMSO.
(§6) Identical “assay plates” were then prepared by pipetting 50 nL each of compound dilutions of the “master plates” into 384-well “assay plates” by means of a HummingBird 384-channel dispenser. These plates were used directly for the assay which was performed in a total volume of 13.55 μL.

The next assay addresses His-Brd3(20-477) (Homo sapiens (Human), UniProt Q15059). The experiment in a line: TR-FRET in-vitro binding assay for BRD3. As to conditions: biochemical. As for the experimental part: as §3, §4, §1, §2, §5, §6
For a further assay, the system named is K-562 cells. The experiment in a line: Cell growth inhibition assay (CellTiter-Glo), K-562. It is filed as cell-based, human. As to the method:
(§7) Cell Growth Inhibition Assay
(§8) The human leukemia cell lines MV-4-11, THP-1 and K-562 were employed to characterize the effect of BET inhibitors on cellular proliferation and viability. Cells were obtained from the American Type Culture Collection (ATCC) and cultured at 37° C. in a humidified 5% CO2 incubator in the following media: MV-4-11: DMEM high glucose (Animed #1-26F01-I), 10% FCS (Animed #2-01F26-I), 4 mM L-Glutamine (Animed #5-10K50), 1 mM Sodium Pyruvate (Animed # G03625P), 1× Penicillin-Streptomycin (Animed # F12478P); K-562: Iscove's MEM (Animed #1-28F16-I), 10% FCS (Animed #2-01F26-I), 4 mM L-Glutamine (Animed #5-10K50), 1× Penicillin-Streptomycin (Animed # F12478P); THP-1: RPMI-1640 (Animed #1-41F01-I), 10% FCS (Animed #2-01F26-I), 2 mM L-Glutamine (Animed #5-10K50), 10 mM HEPES (Animed #5-31F100), 1 mM Sodium Pyruvate (Animed # G03625P), 1× Penicillin-Streptomycin (Animed # F12478P). The AML lines MV-4-11 and THP-1 are very sensitive to BET inhibitors and show massive cell death upon BET inhibition (Zuber et al., Nature, 478 (2011), 524-8). Compound-mediated suppression of cell proliferation/viability was assessed by quantification of cellular ATP levels using the CellTiter-Glo (CTG) reagent (Promega). Briefly, cells were seeded in 20 μl fresh medium into 384-well plates, followed by addition of 5 μL medium containing compound dilutions at 5-fold their final intended concentration. Dose-response effects were assessed by 3-fold serial dilutions of the test compound, starting at 10 μM. Following incubation of the cells for days at 37° C. and 5% CO2, the effect of inhibitors on cell viability was quantified following addition of 20 μl CTG and luminescence quantification (integration time: 100 ms) as per vendor manual, using a correspondingly equipped Tecan M200 multi-mode platereader (TECAN, Switzerland). For data analysis, the assay background value determined in wells containing medium, but no cells, was subtracted from all data points. To enable differentiation of cytotoxic from cytostatic compounds, the number of viable cells is assessed relative to that observed at the time of compound addition using a separate cell plate (day 0). The effect of a particular test compound concentration on cell proliferation/viability is expressed as percentage of the background- and day 0-corrected luminescence reading obtained for cells treated with vehicle only (DMSO, 0.1% final concentration), which is set as 100%, whereas that luminescence reading for wells containing medium is set as −100%. Compound concentrations leading to half-maximal (IC50) and total growth inhibition (TGI) were determined using standard four parameter curve fitting.

For the next assay, the target named is His-Brd2(60-472) (Homo sapiens (Human), UniProt P25440). The experiment in a line: TR-FRET in-vitro binding assay for BRD2. The conditions noted are these: biochemical. As to the method:
as §3, §4, §1, §2, §5, §6

The next assay has as its system THP-1 cells. The experiment in a line: Cell growth inhibition assay (CellTiter-Glo), THP-1. It is filed as cell-based. As to conditions: Homo sapiens, read-out: THP-1 TGI. As to the method: as §7, §8
The next assay concerns MV-4-11 cells. The experiment in a line: Cell growth inhibition assay (CellTiter-Glo), MV-4-11. It is filed as cell-based. As to conditions: Homo sapiens, MV4-11, read-out: MV-4-11 TGI. As for the experimental part:
as §7, §8

The mark [2] stands for this setting: Homo sapiens, K562, read-out: K-562 TGI.

Chain of His-Brd3(20-477) (Q15059 20-477): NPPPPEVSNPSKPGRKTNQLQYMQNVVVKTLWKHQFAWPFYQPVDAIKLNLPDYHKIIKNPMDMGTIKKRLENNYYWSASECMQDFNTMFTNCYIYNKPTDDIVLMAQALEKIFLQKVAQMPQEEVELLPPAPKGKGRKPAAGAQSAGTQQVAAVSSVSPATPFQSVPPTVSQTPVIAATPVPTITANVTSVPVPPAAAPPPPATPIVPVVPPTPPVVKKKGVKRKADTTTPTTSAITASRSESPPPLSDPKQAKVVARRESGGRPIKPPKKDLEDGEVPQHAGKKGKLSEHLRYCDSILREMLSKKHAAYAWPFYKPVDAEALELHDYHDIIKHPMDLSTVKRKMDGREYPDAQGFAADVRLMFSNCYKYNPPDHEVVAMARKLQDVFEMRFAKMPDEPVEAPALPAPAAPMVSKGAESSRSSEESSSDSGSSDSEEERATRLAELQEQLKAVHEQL
Chain of His-CREBBP (1081-1197) bromodomain (Q92793 1081-1197): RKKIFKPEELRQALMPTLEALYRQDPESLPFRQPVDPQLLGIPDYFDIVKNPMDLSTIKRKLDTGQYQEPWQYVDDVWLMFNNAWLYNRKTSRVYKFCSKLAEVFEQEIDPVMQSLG
Chain of His-Brd2(60-472) (P25440 60-472): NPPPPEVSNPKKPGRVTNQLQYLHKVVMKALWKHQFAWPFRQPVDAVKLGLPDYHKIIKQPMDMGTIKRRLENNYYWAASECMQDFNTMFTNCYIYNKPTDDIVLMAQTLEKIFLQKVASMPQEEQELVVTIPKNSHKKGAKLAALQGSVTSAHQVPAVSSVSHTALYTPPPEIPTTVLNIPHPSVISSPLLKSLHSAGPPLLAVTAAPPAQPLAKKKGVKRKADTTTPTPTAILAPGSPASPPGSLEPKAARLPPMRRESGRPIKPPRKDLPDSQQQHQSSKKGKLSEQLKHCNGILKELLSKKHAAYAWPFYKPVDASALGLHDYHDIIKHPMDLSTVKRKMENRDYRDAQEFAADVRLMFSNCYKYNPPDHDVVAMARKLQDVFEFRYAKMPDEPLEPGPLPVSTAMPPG

Usually IC50 stands for the concentration at which inhibition is half-maximal. `CNc1cc(N2C(=O)c3c(c(C)nn3C3CC3)C2c2ccc(Cl)cc2)nn2c(C)nnc12` (racemic) [Example 113, 4-(4-chlorophenyl)-1-cyclopropyl-3-methyl-5-(3-methyl-8-(methylamino)-[1,2,4]triazolo[4,3-b]pyridazin-6-yl)-4,5-dihydropyrrolo[3,4-c]pyrazol-6(1H)-one]: the IC50 in assay [1] is over 37 µM; at His-Brd4(44-477) it was 0.067 µM; on His-Brd3(20-477), 0.12 µM; at His-Brd2(60-472), 0.086 µM. For the same compound, the IC (total growth inhibition) in the assay with K-562 cells (read-out: K-562 TGI) is on record as over 10 µM.
For the compound `Cc1nn(C2CC2)c2c1C(c1ccc(Cl)cc1)N(c1cc(C)c3nnn(C)c3c1)C2=O` (stereo not shown) [Example 85, 4-(4-chlorophenol)-1-cyclopropyl-5-(1,4-dimethyl-1H-benzo[d][1,2,3]triazol-6-yl)-3-methyl-4,5-dihydropyrrolo[3,4-c]pyrazol-6(1H)-one], the IC50 in assay [1] is 8.3 µM; at His-Brd4(44-477), 0.014 µM; on His-Brd3(20-477), 0.016 µM; at His-Brd2(60-472), 0.024 µM.
For `Cc1nn(C2CC2)c2c1[C@H](c1ccc(Cl)cc1)N(c1cc(C)c3nnc(C)n3c1)C2=O` [Example 118, (S)-4-(4-chlorophenyl)-1-cyclopropyl-5-(3,8-dimethyl-[1,2,4]triazolo[4,3-a]pyridin-6-yl)-3-methyl-4,5-dihydropyrrolo[3,4-c]pyrazol-6(1H)-one], the IC (total growth inhibition) in the assay on THP-1 cells is over 10 µM; in the assay with K-562 cells (setting [2]), over 10 µM; in the assay on MV-4-11 cells it was 3.35 µM.
In the case of `Cc1cc(N2C(=O)c3nn(C(C)C)c(C)c3C2c2ccc(Cl)cc2F)cn2c(C)nnc12` (stereo not shown) [Example 169, 4-(4-chloro-2-fluorophenyl)-5-(3,8-dimethyl-[1,2,4]triazolo[4,3-a]pyridin-6-yl)-2-isopropyl-3-methyl-4,5-dihydropyrrolo[3,4-c]pyrazol-6(2H)-one], the IC (total growth inhibition) is 0.121 µM in the assay on THP-1 cells, over 10 µM in the assay on K-562 cells (setting [2]) and 0.0576 µM with MV-4-11 cells.
In the case of `Cc1nn(C2CC2)c2c1[C@@H](c1ccc(F)cc1F)N(c1cc(C)c3nnc(C)n3c1)C2=O` [Example 188, (S)-1-cyclopropyl-4-(2,4-difluorophenyl)-5-(3,8-dimethyl-[1,2,4]triazolo[4,3-a]pyridin-6-yl)-3-methyl-4,5-dihydropyrrolo[3,4-c]pyrazol-6(1H)-one], the IC50 in assay [1] worked out at 19 µM; on His-Brd4(44-477), 0.031 µM; at His-Brd3(20-477), 0.04 µM; at His-Brd2(60-472), 0.041 µM.
The like results for `Cc1nn(C2CC2)c2c1[C@@H](c1ccc(Cl)cc1F)N(c1cc(C)c3nnc(C)n3c1)C2=O` [Example 190, (S)-4-(4-chloro-2-fluorophenyl)-1-cyclopropyl-5-(3,8-dimethyl-[1,2,4]triazolo[4,3-a]pyridin-6-yl)-3-methyl-4,5-dihydropyrrolo[3,4-c]pyrazol-6(1H)-one] were, in that order, 12 µM, 0.022 µM, 0.025 µM and 0.028 µM.
For `CCn1nc(C)c2c1C(=O)N(c1cc(C)c3nnc(C)n3c1)[C@@H]2c1ccc(F)cc1F` [Example 191, (S)-4-(2,4-difluorophenyl)-5-(3,8-dimethyl-[1,2,4]triazolo[4,3-a]pyridin-6-yl)-1-ethyl-3-methyl-4,5-dihydropyrrolo[3,4-c]pyrazol-6(1H)-one], in that order: 10 µM, 0.025 µM, 0.031 µM and 0.069 µM.
The like results for `CCn1nc(C)c2c1C(=O)N(c1cc(C)c3nnc(C)n3c1)[C@@H]2c1ccc(Cl)cc1F` [Example 192, (S)-4-(4-chloro-2-fluorophenyl)-5-(3,8-dimethyl-[1,2,4]triazolo[4,3-a]pyridin-6-yl)-1-ethyl-3-methyl-4,5-dihydropyrrolo[3,4-c]pyrazol-6(1H)-one] were, in that order, 7.1 µM, 0.039 µM, 0.044 µM and 0.053 µM.
Turning to `COc1ncccc1-n1nc2c(c1C)C(c1ccc(F)cc1F)N(c1cc(C)c3nnc(C)n3c1)C2=O` (stereo not shown) [Example 193, 4-(2,4-difluorophenyl)-5-(3,8-dimethyl-[1,2,4]triazolo[4,3-a]pyridin-6-yl)-2-(2-methoxypyridin-3-yl)-3-methyl-4,5-dihydropyrrolo[3,4-c]pyrazol-6(2H)-one], the IC (total growth inhibition) in the assay on THP-1 cells is 0.141 µM; in the assay on K-562 cells (setting [2]), over 10 µM; in the assay on MV-4-11 cells, 0.0985 µM.
The like results for `Cc1[nH]nc2c1C(c1ccc(Cl)cc1F)N(c1cc(C)c(=O)n(C)c1)C2=O` (stereo not shown) [Example 196, 4-(4-chloro-2-fluorophenyl)-5-(1,5-dimethyl-6-oxo-1,6-dihydropyridin-3-yl)-3-methyl-4,5-dihydropyrrolo[3,4-c]pyrazol-6(2H)-one] were, in that order, 0.53 µM, over 10 µM and 0.266 µM.
